According to PubChem BioAssay AID2060485 (Molecular Pharmacology Branch, DTP, NCI, 2025):

Test system: A375 multi-cell spheroids with HUVEC/MSC, viability
Assay: Anticancer human tumor A375 cell line growth inhibition [GQUAD];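 also: spheroids exposed to compounds for seven days before readout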
Details: for IC50: curve of first compound; for viability, T/C: stronger effect = lower value
Procedure, shortened: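 Viability of tumor cells grown as complex spheroids with endothelial and stromal cells, exposed to drug combinations. Top concentration at or near clinical Cmax (else 10 microM), diluted in half-log increments.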

[1] = second compound 0.0316 µM, first compound 0.0316 µM
[2] = second compound 0.0316 µM, first compound 0.316 µM
[3] = second compound 0.1 µM, first compound 0.0316 µM
[4] = second compound 0.1 µM, first compound 0.316 µM
[5] = second compound 0.316 µM, first compound 0.0316 µM
[6] = second compound 0.316 µM, first compound 0.316 µM
[7] = second compound 1 µM, first compound 0.0316 µM
[8] = second compound 1 µM, first compound 0.316 µM
[9] = second compound 3.16 µM, first compound 0.0316 µM
[10] = second compound 3.16 µM, first compound 0.316 µM
[11] = second compound 10 µM, first compound 0.0316 µM
[12] = second compound 10 µM, first compound 0.316 µM
[13] = second compound 0.0316 µM, first compound 0.1 µM
[14] = second compound 0.0316 µM, first compound 1 µM
[15] = second compound 0.0316 µM, first compound 3.16 µM
[16] = second compound 0.0316 µM, first compound 10 µM
[17] = second compound 0.1 µM, first compound 0.1 µM
[18] = second compound 0.1 µM, first compound 1 µM
[19] = second compound 0.1 µM, first compound 3.16 µM
[20] = second compound 0.1 µM, first compound 10 µM
[21] = second compound 0.316 µM, first compound 0.1 µM
[22] = second compound 0.316 µM, first compound 1 µM
[23] = second compound 0.316 µM, first compound 3.16 µM
[24] = second compound 0.316 µM, first compound 10 µM
[25] = second compound 1 µM, first compound 0.1 µM
[26] = second compound 1 µM, first compound 1 µM
[27] = second compound 1 µM, first compound 3.16 µM
[28] = second compound 1 µM, first compound 10 µM
[29] = second compound 3.16 µM, first compound 0.1 µM
[30] = second compound 3.16 µM, first compound 1 µM
[31] = second compound 3.16 µM, first compound 3.16 µM
[32] = second compound 3.16 µM, first compound 10 µM
[33] = second compound 10 µM, first compound 0.1 µM
[34] = second compound 10 µM, first compound 1 µM
[35] = second compound 10 µM, first compound 3.16 µM
[36] = second compound 10 µM, first compound 10 µM

## CC[C@@]1(O)C(=O)OCc2c1cc1n(c2=O)Cc2cc3c(CN(C)C)c(O)ccc3nc2-1 + CN(C)c1ccc(Nc2c3ccc(NC(=O)CCN4CCCC4)cc3nc3cc(NC(=O)CCN4CCCC4)ccc23)cc1
Second compound 0.0316 µM
  IC50: 44.7 nM
Second compound 0.1 µM
  IC50: 45.3 nM
Second compound 0.316 µM
  IC50: 39.6 nM
Second compound 1 µM
  IC50: 47.4 nM
Second compound 3.16 µM
  IC50: 49.5 nM
Second compound 10 µM
  IC50: 45.9 nM
Second compound 0.0316 µM, first compound 0.000999 µM
  viability, T/C: 104%
Second compound 0.0316 µM, first compound 0.00316 µM
  viability, T/C: 107%
Second compound 0.0316 µM, first compound 0.00999 µM
  viability, T/C: 104%
[1]
  viability, T/C: 63.4%
Second compound 0.0316 µM, first compound 0.0999 µM
  viability, T/C: 18.5%
[2]
  viability, T/C: 9.04%
Second compound 0.1 µM, first compound 0.000999 µM
  viability, T/C: 112%
Second compound 0.1 µM, first compound 0.00316 µM
  viability, T/C: 105%
Second compound 0.1 µM, first compound 0.00999 µM
  viability, T/C: 96.2%
[3]
  viability, T/C: 64.2%
Second compound 0.1 µM, first compound 0.0999 µM
  viability, T/C: 20.4%
[4]
  viability, T/C: 10.9%
Second compound 0.316 µM, first compound 0.000999 µM
  viability, T/C: 101%
Second compound 0.316 µM, first compound 0.00316 µM
  viability, T/C: 107%
Second compound 0.316 µM, first compound 0.00999 µM
  viability, T/C: 108%
[5]
  viability, T/C: 58%
Second compound 0.316 µM, first compound 0.0999 µM
  viability, T/C: 19.8%
[6]
  viability, T/C: 10.9%
Second compound 1 µM, first compound 0.000999 µM
  viability, T/C: 114%
Second compound 1 µM, first compound 0.00316 µM
  viability, T/C: 106%
Second compound 1 µM, first compound 0.00999 µM
  viability, T/C: 102%
[7]
  viability, T/C: 67%
Second compound 1 µM, first compound 0.0999 µM
  viability, T/C: 18.9%
[8]
  viability, T/C: 9.06%
Second compound 3.16 µM, first compound 0.000999 µM
  viability, T/C: 103%
Second compound 3.16 µM, first compound 0.00316 µM
  viability, T/C: 102%
Second compound 3.16 µM, first compound 0.00999 µM
  viability, T/C: 102%
[9]
  viability, T/C: 68.8%
Second compound 3.16 µM, first compound 0.0999 µM
  viability, T/C: 20.6%
[10]
  viability, T/C: 12.7%
Second compound 10 µM, first compound 0.000999 µM
  viability, T/C: 102%
Second compound 10 µM, first compound 0.00316 µM
  viability, T/C: 103%
Second compound 10 µM, first compound 0.00999 µM
  viability, T/C: 107%
[11]
  viability, T/C: 63.2%
Second compound 10 µM, first compound 0.0999 µM
  viability, T/C: 22.4%
[12]
  viability, T/C: 9.58%

## C=CC(=O)N1CCN(c2nc(=O)n(-c3c(C)ccnc3C(C)C)c3nc(-c4c(O)cccc4F)c(F)cc23)C(C)C1 (stereo not drawn) + CN(C)c1ccc(Nc2c3ccc(NC(=O)CCN4CCCC4)cc3nc3cc(NC(=O)CCN4CCCC4)ccc23)cc1
Second compound 0.0316 µM
  IC50: > 10000 nM
Second compound 0.1 µM
  IC50: > 10000 nM
Second compound 0.316 µM
  IC50: > 10000 nM
Second compound 1 µM
  IC50: > 10000 nM
Second compound 3.16 µM
  IC50: > 10000 nM
Second compound 10 µM
  IC50: > 10000 nM
[1]
  viability, T/C: 107%
[13]
  viability, T/C: 95.4%
[2]
  viability, T/C: 94.9%
[14]
  viability, T/C: 95.1%
[15]
  viability, T/C: 110%
[16]
  viability, T/C: 123%
[3]
  viability, T/C: 108%
[17]
  viability, T/C: 96.8%
[4]
  viability, T/C: 103%
[18]
  viability, T/C: 95.4%
[19]
  viability, T/C: 98.6%
[20]
  viability, T/C: 119%
[5]
  viability, T/C: 95.1%
[21]
  viability, T/C: 94.7%
[6]
  viability, T/C: 90.6%
[22]
  viability, T/C: 101%
[23]
  viability, T/C: 101%
[24]
  viability, T/C: 128%
[7]
  viability, T/C: 97.7%
[25]
  viability, T/C: 92.2%
[8]
  viability, T/C: 94.8%
[26]
  viability, T/C: 102%
[27]
  viability, T/C: 109%
[28]
  viability, T/C: 133%
[9]
  viability, T/C: 98.7%
[29]
  viability, T/C: 90.7%
[10]
  viability, T/C: 92.3%
[30]
  viability, T/C: 93.4%
[31]
  viability, T/C: 103%
[32]
  viability, T/C: 126%
[11]
  viability, T/C: 99.9%
[33]
  viability, T/C: 92.2%
[12]
  viability, T/C: 99.8%
[34]
  viability, T/C: 100%
[35]
  viability, T/C: 108%
[36]
  viability, T/C: 107%

## CCCS(=O)(=O)Nc1ccc(F)c(C(=O)c2c[nH]c3ncc(-c4ccc(Cl)cc4)cc23)c1F + Cc1cnc(CNC(=O)c2c(=O)c3ccc(N4CCCN(C)CC4)nc3n3c2sc2ccccc23)cn1
Second compound 0.0316 µM
  IC50: < 31.6 nM
Second compound 0.1 µM
  IC50: < 31.6 nM
Second compound 0.316 µM
  IC50: < 31.6 nM
Second compound 1 µM
  IC50: < 31.6 nM
Second compound 3.16 µM
  IC50: < 31.6 nM
Second compound 10 µM
  IC50: < 31.6 nM
[1]
  viability, T/C: 34.1%
[13]
  viability, T/C: 16.2%
[2]
  viability, T/C: 9.28%
[14]
  viability, T/C: 8.24%
[15]
  viability, T/C: 5.87%
[16]
  viability, T/C: 7.01%
[3]
  viability, T/C: 27.9%
[17]
  viability, T/C: 14.7%
[4]
  viability, T/C: 10.1%
[18]
  viability, T/C: 6.6%
[19]
  viability, T/C: 5.83%
[20]
  viability, T/C: 5.93%
[5]
  viability, T/C: 23.5%
[21]
  viability, T/C: 14%
[6]
  viability, T/C: 7.97%
[22]
  viability, T/C: 6.65%
[23]
  viability, T/C: 5.74%
[24]
  viability, T/C: 3.51%
[7]
  viability, T/C: 21.8%
[25]
  viability, T/C: 13.2%
[8]
  viability, T/C: 8.1%
[26]
  viability, T/C: 6.44%
[27]
  viability, T/C: 6.08%
[28]
  viability, T/C: 2.62%
[9]
  viability, T/C: 16.2%
[29]
  viability, T/C: 11.3%
[10]
  viability, T/C: 8.15%
[30]
  viability, T/C: 7.91%
[31]
  viability, T/C: 6.35%
[32]
  viability, T/C: 0.08%
[11]
  viability, T/C: 16%
[33]
  viability, T/C: 13.5%
[12]
  viability, T/C: 8.99%
[34]
  viability, T/C: 7.73%
[35]
  viability, T/C: 6.2%
[36]
  viability, T/C: 0.13%

## COc1cc(C2c3cc4c(cc3C(OC3OC5COC(C)OC5C(O)C3O)C3COC(=O)C23)OCO4)cc(OC)c1O (stereo not drawn) + Cc1[nH]c2ccc(F)cc2c1-c1nc2c3cccnc3c3ncccc3c2[nH]1
Second compound 0.0316 µM
  IC50: 1630 nM
Second compound 0.1 µM
  IC50: 1010 nM
Second compound 0.316 µM
  IC50: 1840 nM
Second compound 1 µM
  IC50: 1810 nM
Second compound 3.16 µM
  IC50: 1300 nM
Second compound 10 µM
  IC50: 969 nM
[1]
  viability, T/C: 109%
[13]
  viability, T/C: 109%
[2]
  viability, T/C: 97.6%
[14]
  viability, T/C: 59.6%
[15]
  viability, T/C: 37.6%
[16]
  viability, T/C: 26.9%
[3]
  viability, T/C: 97.7%
[17]
  viability, T/C: 134%
[4]
  viability, T/C: 94.8%
[18]
  viability, T/C: 51.5%
[19]
  viability, T/C: 33.1%
[20]
  viability, T/C: 27.7%
[5]
  viability, T/C: 101%
[21]
  viability, T/C: 156%
[6]
  viability, T/C: 89.2%
[22]
  viability, T/C: 68.2%
[23]
  viability, T/C: 40.2%
[24]
  viability, T/C: 26%
[7]
  viability, T/C: 109%
[25]
  viability, T/C: 130%
[8]
  viability, T/C: 89.7%
[26]
  viability, T/C: 62.5%
[27]
  viability, T/C: 43.2%
[28]
  viability, T/C: 29%
[9]
  viability, T/C: 69%
[29]
  viability, T/C: 86.6%
[10]
  viability, T/C: 69.8%
[30]
  viability, T/C: 51.6%
[31]
  viability, T/C: 40.2%
[32]
  viability, T/C: 27.8%
[11]
  viability, T/C: 78.9%
[33]
  viability, T/C: 87.4%
[12]
  viability, T/C: 76.1%
[34]
  viability, T/C: 48.2%
[35]
  viability, T/C: 34.4%
[36]
  viability, T/C: 25.6%
